Results: PMC9228152, “New Amino Naphthoquinone Derivatives as Anti-Trypanosoma cruzi Agents Targeting Trypanothione Reductase” (Pharmaceutics, 2022)
Where two headings read alike, the source gives them in different places.

Tests used:
[1] = system: Y strain of T. cruzi epimastigote; set-up: method as in doi:10.1039/C5RA10122K; conditions: read-out: IC50 against Y strain of T. cruzi epimastigote; cited from earlier work
[2] = system: NINOA strain of T. cruzi trypomastigotes; set-up: method as in PMID 31709599; conditions: cited from earlier work
[3] = system: J774 cells; set-up: method as in PMID 31709599; conditions: cited from earlier work
[4] = system: trypomastigote cultures (Y strain); set-up: method as in PMID 28215783; conditions: cited from earlier work
[5] = system: T. cruzi epimastigotes, NINOA strain; experiment: Growth inhibition of T. cruzi epimastigotes, NINOA strain; assay type: cell-based; conditions: Trypanosoma cruzi, 120 h, epimastigotes, NINOA strain; five days; means of three independent experiments; read-out: Epi NINOA IC50
Description: (§1) Epimastigotes from T. cruzi strains NINOA and INC-5 were cultured in BHI (brain heart infusion broth, 89%) axenic medium, as reported in [26], at an initial concentration of 1 × 10^6 parasites/mL, at 28 °C, supplemented with 10% foetal bovine serum and 1% sodium penicillin-streptomycin. […] On the last day, the absorbance of the cultures was measured and related to the control. All measurements were carried out in triplicate. No toxic effect was attributable to DMSO. Since parasite growth is exponential, the data were analysed according to a first order equation, and the respective growth constant (k), corresponding to the slope, was calculated for controls and parasites treated with different drug concentrations. From these measurements, percentage growth inhibition (%GI) and half-maximal inhibitory concentration (IC50) values were calculated.

[6] = system: J774 murine macrophages; experiment: Cytotoxicity on J774 macrophages (MTT); assay type: cell-based; conditions: J774 macrophages, MTT, 24 h, read-out: J774 IC50
Description: Cytotoxicity assays for the compounds selected for their trypanocidal activity were performed on J774 macrophage cells using the MTT method. For this purpose, 50,000 cells/well resuspended in RPMI medium and 2% foetal bovine serum were seeded in a 96-well plate and incubated for 24 h at 37 °C. […] After 24 h of incubation, the existing culture medium was replaced in the plate with fresh culture medium along with […] each of the compound dilutions (100 to 1.25 μM) and Bzn to a final volume of 100 µL per well. This plate was then incubated in 5% CO2 for 24 h at 37 °C. The controls used were cells with medium as a positive control and cells without culture medium as a negative control. After the 24 h incubation, the morphology of the macrophages was observed under a microscope and then the culture medium was removed again and the MTT solution (5 mg/mL) was added. After 1 h incubation at 37 °C, the absorbance at 570 nm was recorded on an Elisa Epoch reader. The following formula was used to calculate the % cytotoxicity: %cytotoxicity = (100 − (mean number of cells with treatment/cells without treatment) × 100).

[7] = system: T. cruzi epimastigotes, INC-5 strain; experiment: Growth inhibition of T. cruzi epimastigotes, INC-5 strain; assay type: cell-based, Trypanosoma cruzi; conditions: epimastigotes, INC-5 strain, five days, means of three independent experiments, read-out: Epi INC-5 IC50
Description: as §1

[8] = system: T. cruzi trypomastigotes, NINOA strain; experiment: microbe, parasite or virus in culture; assay type: cell-based; conditions: Trypanosoma cruzi; bloodstream trypomastigotes, NINOA strain; 24 h at 4 °C; read-out: Trypo NINOA LC50 (half-maximal lytic concentration)
Description: (§2) Those compounds with the lowest IC50 values in the epimastigote studies of each strain were evaluated in trypomastigotes. For this purpose, bloodstream trypomastigotes of INC-5 and NINOA strains were used for peritoneal injection into 6−8-week-old CD1 mice. The peak of parasitemia was achieved after 4–6 weeks, at which time parasitised blood samples were obtained by cardiac puncture using sodium heparin as an anticoagulant and diluted to a concentration of 1 × 10^6 trypomastigotes/mL. 10 µL of each of the dilutions of the study compounds and Bzn, with these being placed in a 96-well plate, and 90 µL of infected blood was added, providing a final volume of 100 µL per well. The microplates were incubated at 4 °C for 24 h, and concentrations of 20 µM, 10 µM, and 5 µM of each compound were considered in these experiments. Each evaluation was performed in triplicate. Wells with untreated blood trypomastigotes were used as a negative lysis control and Bzn as a positive control. Then, the degree of lysis of trypomastigotes was determined by their reduction in number using an optical microscope according to the Brener–Pizzi method. For this purpose, 5 μL of blood was placed between a slide and a 13 × 13 coverslip. Mobile trypomastigotes were counted in 15 microscope fields at 40× magnification. Quantification of the degree of lysis for each case was expressed as a percentage considering the number of viable trypomastigotes with respect to the negative control. The half-maximal lytic concentration (LC50) was determined by linear regression. The experiments were carried out in accordance with the recommendations and approval of the local Ethics and Research Committee (Approval number: ENCB/CEI/078/2020).

[9] = system: T. cruzi trypomastigotes, INC-5 strain; experiment: microbe, parasite or virus in culture; assay type: cell-based; conditions: Trypanosoma cruzi; bloodstream trypomastigotes, INC-5 strain; 24 h at 4 °C; read-out: Trypo INC-5 LC50 (half-maximal lytic concentration)
Description: as §2

[10] = system: epimastigotes of the Tulahuén strain; set-up: method as in PMID 25127463; conditions: read-out: IC50 against epimastigotes of the Tulahuén strain; cited from earlier work
[11] = system: T. cruzi trypomastigotes; set-up: method as in PMID 30670432; conditions: cited from earlier work
[12] = biological target: recombinant TcTR (Trypanosoma cruzi, UniProt P28593); experiment: Trypanothione reductase inhibition assay (TS2-dependent NADPH oxidation); assay type: biochemical; conditions: for Ki: mixed-type inhibition, global nonlinear regression
Description: The inhibition of TcTR activity by 7j was evaluated by monitoring the trypanothione disulphide (TS2)-dependent NADPH oxidation by using the assay described before. The reaction mixture contained assay buffer (40 mM HEPES pH 7.4, 1 mM EDTA), recombinant TcTR (88-168 ng/mL), NADPH (the concentration depended on experiment), and different 7j concentrations when required, in a volume of 500 μL. The mixture was incubated at 37 °C for 3 min, and TS2 was added to start the reaction. The absorbance at 340 nm was recorded in real time for 10 min, and the activity was calculated from the slope of the curves as μmol of NADPH oxidised per min (e^340 = 6.22 mM^−1 cm^−1).

[13] = alpha of the mixed-type inhibitor equation, replots of slope and 1/v axis intercept vs. 7j

Chain of recombinant TcTR (P28593 whole entry): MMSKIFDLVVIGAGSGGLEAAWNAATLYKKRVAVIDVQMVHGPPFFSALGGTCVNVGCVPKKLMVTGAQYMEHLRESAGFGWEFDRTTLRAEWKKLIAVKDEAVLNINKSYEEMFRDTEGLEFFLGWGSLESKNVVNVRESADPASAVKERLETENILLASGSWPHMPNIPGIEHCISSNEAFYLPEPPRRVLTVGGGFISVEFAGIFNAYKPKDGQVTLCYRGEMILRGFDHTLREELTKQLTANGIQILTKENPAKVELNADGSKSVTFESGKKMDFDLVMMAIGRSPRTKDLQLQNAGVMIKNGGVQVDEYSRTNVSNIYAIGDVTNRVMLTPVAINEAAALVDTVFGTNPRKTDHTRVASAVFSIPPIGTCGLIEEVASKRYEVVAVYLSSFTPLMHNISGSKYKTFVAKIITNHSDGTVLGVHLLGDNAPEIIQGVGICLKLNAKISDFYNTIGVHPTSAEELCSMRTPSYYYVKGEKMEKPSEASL

In the case of `O=C1C=C(Oc2cccc([N+](=O)[O-])c2)C(=O)c2ccccc21` [II, 2-(3-nitrophenoxy)-1,4-naphthoquinone], the IC50 [1] is listed as 0.02 µM.

In the case of `Cc1ccc(OC2=C(Cl)C(=O)c3ccccc3C2=O)cc1[N+](=O)[O-]` [III], the IC50 [2] is given as 9.38 µM and the IC50 [3] is given as 117 µM.

For `Clc1ccc2nccc(NCCN3CCOCC3)c2c1` [V], the IC50 [4] is listed as 67.7 µM.

For `O=C(Cn1ccnc1[N+](=O)[O-])NCc1ccccc1` [Bzn, benznidazole, reference compound], the IC50 [5] is listed as 8.21 ± 1.8 µM, the IC50 [2] is listed as 40.7 µM and the IC50 [3] is listed as 352 µM. The IC50 ([6]; Mus musculus, J774, 24 h) was 352 µM, the IC50 ([7]; Trypanosoma cruzi, 120 h) was 42.3 ± 5.8 µM and the LC50 [8] was greater than 100 µM. For the same compound, the LC50 [9] was 85.6 ± 4.23 µM.

In the case of `CCCCCCOc1ccc(NC2=CC(=O)c3ccccc3C2=O)cc1` [I], the IC50 [10] is given as 1.72 µM.

For `O=C(Nc1nc(-c2ccccc2)c[nH]1)N1CCN(c2ccc(C(F)(F)F)cc2[N+](=O)[O-])CC1` [VI], the IC50 [11] is given as 2.2 µM.

In the case of `O=C1C(Cl)=C(N2CCC(NC(=O)c3cccc4ccccc34)CC2)C(=O)c2ccccc21` [Compound 7j, N-(1-(3-chloro-1,4-dioxo-1,4-dihydronaphthalen-2-yl)piperidin-4-yl)-1-naphthamide], the “α NADPH” value [12, 13] is reported as 1.12, the “α TS2” value [12, 13] is reported as 0.77 and the Ki ([12]; NADPH varied, TS2 fixed 200 µM, read-out: Ki 7j vs. NADPH) is reported as 18 ± 3.5 µM. The Ki ([12]; TS2 varied, NADPH fixed 160 µM, read-out: Ki 7j vs. TS2) was 28 ± 4.5 µM, the “Type of enzyme inhibition” value ([12]; with respect to both substrates, TS2 and NADPH, Lineweaver-Burk plots) was “simple mixed-type inhibitor” and the IC50 [6] was 33 µM. For the same compound, the IC50 ([6]; Mus musculus, J774, 24 h) was roughly 25 µM, the IC50 ([7]; Trypanosoma cruzi, 120 h) was less than 1 µM and the IC50 [7] was 0.92 ± 0.01 µM. It also gave an LC50 [8] of 98.1 ± 8.9 µM and an LC50 [9] of 59.7 ± 3.72 µM.
